Earlier results as cited in patent publication US4833125A, “Method of increasing bone mass” (The General Hospital Corporation, priority 1987, dated 1989).

System: osteoporosis in humans
Conditions: hPTH (1-34) alone, Reeve et al. 1980

## hPTH (1-34): fragment of human parathyroid hormone, first thirty-four amino acid residues, given alone in cited trial (SVSEIQLMHNLGKHLNSMERVEWLRKKLQDVHNF; Parathyroid hormone; UniProt P01270 32-65, looked up, fragment)
  axial trabecular bone: considerable increase
  calcium retention, and hence total bone mass: improved in only about half of these patients
